test system: ovulation in female rats; assay: Anti-ovulatory activity (AOA) in vivo assay in rats; parameters: species or system rat; settings: dose 1 μg per rat
Protocol: As used herein, “LHRH antagonist peptide” is intended to include peptides and peptide analogs which inhibit LHRH activity (i.e., has “LHRH antagonist activity”) in vivo or in vitro. Candidate LHRH antagonist peptides can be assayed, for example, in the animal model described in Corbin and Beattie, Endocrine Res. Commun. 2:1 (1975) (and see infra). In this assay, the LHRH antagonistic activity of a candidate compound is assayed by measuring the antiovulatory activity (AOA) of the compound in rats.
Anti-ovulatory activity (AOA) was measured by an in vivo assay in rats, as described in Corbin and Beattie, Endocrine Res. Commun. 2:1 (1975). In brief, female rats are injected with a candidate LHRH antagonist on the day of proestrus; in general, the candidate LHRH antagonist was dissolved in 0.1% DMSO. The ability of the candidate peptide to inhibit ovulation is measured by determining the number of rats which ovulate. A candidate peptide is considered to have LHRH antagonist qualities if it inhibits ovulation in at least 50% of the treated rats at a dose of 5 μg per rat. Preferred LHRH antagonists inhibit ovulation in at least 50% of rats at a dose of 2 μg per rat, more preferably at a dose of […], and still more preferably at a dose of 0.5 μg per rat.

| Substance | AO activity (AOA): rats which ovulate / rats treated |
| --- | --- |
| Ac-Sar^1, 4-Cl-D-Phe^2, L-1-Nal^3, D-Pal(iPr)^6, Lys(iPr)^8, D-Ala^10-LHRH.2TFA [Compound 3773] | 7/8@1.0 |
| Ac-D-Nal^1, 4-Cl-D-Phe^2, D-Pal^3, D-Lys(iPr)^5, D-Lys(TFAc)^6, Lys(iPr)^8, D-Ala^10-LHRH.2TFA [Compound 3753] | 7/8@1.0 |
| Ac-D-Nal^1, 4-Cl-D-Phe^2, D-Pal^3, D-Lys(Ala)^6, Lys(iPr)^8, D-Ala^10-LHRH.TFA [Compound 3771] | 7/8@1.0 |
| Ac-D-Nal^1, 4-Cl-D-Phe^2, D-Pal^3, N-Me-Tyr^5, D-Lys(Ac)^6, Lys(iPr)^8, D-Ala^10-LHRH.TFA [Compound 3829] | 8/8@1.0 |
| Ac-Sar^1, 4-Cl-D-Phe^2, 1-1-Nal^3, D-Pal(Bzl)^6, Lys(iPr)^8,D-Ala^10-LHRH.2TFA [Compound 3769] | 6/8@1.0 |
| Ac-D-Nal^1, 4-Cl-D-Phe^2, D-Pal^3, Lys(ONic)^5, D-Lys(ONic)^6, Lys(iPr)^8, D-Ala^10-LHRH.TFA [Compound 3503] | 6/8@1 μg |
| Ac-D-Nal^1, 4-Cl-D-Phe^2, D-Pal^3, D-Lys(2-pyrimidylthio)acetic)^6, Lys(iPr)^8, D-Ala^10-LHRH.TFA [Compound 3960] | 5/8@1.00 |
| Ac-D-Nal^1, 4-Cl-D-Phe^2, D-Pal^3, D-Lys(HomoPro)^6, Lys(iPr)^8, D-Ala^10-LHRH.TFA [Compound 3439] | 2/8@1 μg |
| Ac-D-Nal^1, 4-Cl-D-Phe^2, D-Pal^3, D-Lys(iPrNic)^5, D-Lys(iPrNic)^6, Lys(iPr)^8, D-Ala^10-LHRH.TFA [Compound 3553] | 8/8@1 μg |
| Ac-D-Nal^1, 4-Cl-D-Phe^2, D-Pal^3, His^5D-Pal(iPr)^6, Lys(iPr)^8, D-Ala^10-LHRH.2TFA [Compound 3754] | 5/8@1.0 |
| Ac-D-Nal^1, 4-Cl-D-Phe^2, D-Pal(N—O)^3, D-Pal(iPr)^6, Lys(iPr)^8, D-Ala^10-LHRH.2TFA [Compound 3882] | 6/8@1.0 |
| Ac-D-Nal^1, 4-Cl-D-Phe^2, D-Pal^3, D-Glu(Mop)^6, Lys(iPr)^8, D-Ala^10-LHRH.2TFA [Compound 3549] | 6/8@1 μg |
| Ac-D-Pal^1, 4-Cl-D-Phe^2, D-Pal^3, D-Pal(iPr)^6, Lys(iPr)^8, D-Ala^10-LHRH.2TFA [Compound 3804] | 8/8@1.0 |
| Ac-D-Qal^1, 4-Cl-D-Phe^2, D-Pal^3, D-Lys(Otac)^6, Lys(iPr)^8, D-Ala^10-LHRH.TFA [Compound 3802] | 5/8@1.0 |
| Ac-D-Nal^1, 4-Cl-D-Phe^2, D-Pal^3, D-Gln(iPr)^6, Lys(iPr)^8, D-Ala^10-LHRH.2TFA [Compound 3545] | 7/8@1 μg |
| Ac-D-Nal^1, 4-Cl-D-Phe^2, D-Pal^3, D-Arg^6, Lys(COCH2S^+Me2)^8, D-Ala^10-LHRH.2TFA [Compound 4015] | 1/8@1.00 |
| Ac-D-Nal^1, 4-Cl-D-Phe^2, D-Trp^3, D-Met(S^+CH2—CH═CH2)^6, D-Ala^10-LHRH.2TFA [Compound 3984] | 3/8@1.00 |
| Ac-D-Nal^1, 4-Cl-D-Phe^2, D-Pal^3, D-Glu(CSer)^6, Lys(iPr)^8, D-Ala^10-LHRH.2TFA [Compound 3550] | 6/8@1 μg |
| Ac-D-Nal^1, 4-Cl-D-Phe^2, D-Pal^3, D-Met(S^+CH2COPh)^6, D-Ala^10-LHRH.2TFA [Compound 3968] | 4/8@1.00 |
| Ac-D-Nal^1, 4-Cl-D-Phe^2, D-Pal^3, D-Lys(AcGly)^6, Lys(iPr)^8, D-Ala^10-LHRH.TFA [Compound 3759] | 5/8@1.0 |

| Substance | AO activity (AOA): rats which ovulate / rats treated |
| --- | --- |
| Ac-D-Nal^1,4-Cl-D-Phe^2,D-Pal^3,D-Lys(COCH2S^+Me2)^6, D-Ala^10-LHRH.2TFA [Compound 4014] | 0/8@1.00 |
| Ac-D-Nal^1, 4-Cl-D-Phe^2, D-Trp^3, D-Arg^6, Met^8, D-Ala^10-LHRH.TFA [Compound 3880] | 8/8@1.0 |
| Ac-D-Nal^1, 4-Cl-D-Phe^2, D-Pal^3, Lys(iPr)^5, D-Trp^6, Trp^7,Orn^8, D-Ala^10-LHRH.TFA [Compound 3855] | 4/8@1.0 |
| Ac-D-Qal^1, 4-Cl-D-Phe^2, D-Pal^3, D-Lys(Gulonyl)^6, Lys(iPr)^8, D-Ala^10-LHRH.TFA [Compound 3785] | 7/8@1.0 |
| Ac-D-Nal^1, 4-Cl-D-Phe^2, D-Pal^3, Pal^5, D-Cit^6, Lys(iPr)^8, D-Ala^10-LHRH.TFA [Compound 3432] | 7/8@1 μg |
| Ac-D-Nal^1, 4-Cl-D-Phe^2, D-Pal^3, D-Lys^6, Lys(iPr)^8, D-Ala^10-LHRH.TFA [Compound 3505] | 5/8@1 μg |
| Ac-D-Nal^1, 4-Cl-D-Phe^2, D-Pal^3, Lys(CNa)^5, D-Lys(CNa)^6, Lys(iPr)^8, D-Ala^10-LHRH.2TFA [Compound 3551] | 6/8@1 μg |
| Ac-Sar^1, 4-Cl-D-Phe^2, D-1-Nal^3, D-Pal(iPr)^6, Lys(iPr)^8, D-Ala^10-LHRH.2TFA [Compound 3772] | 8/8@1.0 |
| Ac-D-Nal^1, 4-Cl-D-Phe^2, D-Pal^3, D-Lys(Hippic)^6, Lys(iPr)^8, D-Ala^10-LHRH.TFA [Compound 3758] | 5/8@1.0 |
| Ac-D-Nal^1, 4-Cl-D-Phe^2, D-Pal^3, D-Lys(Glycolyl)^6, Lys(iPr)^8, D-Ala^10-LHRH.TFA [Compound 3437] | 7/8@1 μg |
| Ac-D-Nal^1, 4-Cl-D-Phe^2, D-Pal^3, Lys(TFAc)^6, Lys(iPr)^8, D-Ala^10-LHRH.2TFA [Compound 3546] | 6/8@1 μg |
| Ac-D-Nal^1, 4-Cl-D-Phe^2, D-Pal^3, Lys(Otac)^5, D-Lys(Otac)^6, Lys(iPr)^8, D-Ala^10-LHRH.TFA [Compound 3502] | 6/8@1 μg |
| Ac-D-Nal^1, 4-Cl-D-Phe^2, D-Pal^3, Asn^5, D-Pal(iPr)^6, Lys(iPr)^8, D-Ala^10-LHRH.2TFA [Compound 3744] | 7/8@1.0 |
| Ac-D-Nal^1, 4-Cl-D-Phe^2, D-Pal^3, D-Orn(COCH2S^+Me2)^6, D-Ala^10-LHRH.2TFA [Compound 4013] | 0/8@1.00 |
| Ac-D-Nal^1, 4-Cl-D-Phe^2, D-Trp^3, D-Arg^6, Lys(COCH2Br)^8, D-Ala^10-LHRH.TFA [Compound 3926] | 6/8@1.0 |
| Ac-D-Nal^1, 4-Cl-D-Phe^2, D-Pal^3, D-Arg^6, Orn(COCH2SMe)^8, D-Ala^10-LHRH.2TFA [Compound 3994] | 6/8@1.00 |
| Ac-D-Nal^1, 4-Cl-D-Phe^2, D-Pal^3, D-Lys(2-ClNic)^6, Lys(iPr)^8, D-Ala^10-LHRH.TFA [Compound 3441] | 8/8@1 μg |
| Ac-D-Nal^1, 4-Cl-D-Phe^2, D-Phe^2, D-Pal^3, Ala^5, D-Pal(iPr)^6, Lys(iPr)^8, D-Ala^10-LHRH.2TFA [Compound 3756] | 6/8@1.0 |
| Ac-D-Nal^1, 4-Cl-D-Phe^2, D-Pal^3, D-Pal(CH2COOH)^6, Lys(iPr)^8, D-Ala^10-LHRH.TFA [Compound 3770] | 6/8@1.0 |

same assay, conditions: dose 2 μg per rat

| Substance | AO activity (AOA): rats which ovulate / rats treated |
| --- | --- |
| Ac-D-Nal^1, 4-Cl-D-Phe^2, D-Pal^3, D-Glu(PEG)^6, Lys(iPr)^8, D-Ala^10-LHRH.2TFA [Compound 3542] | 7/8@2 μg |

same assay, conditions: dose 5 μg per rat

| Substance | AO activity (AOA): rats which ovulate / rats treated |
| --- | --- |
| Ac-D-(or L)-9-anthryl-Ala^1, 4-Cl-D-Phe^2, D-Pal^3, D-Cit^6-Lys(iPr)^8, D-Ala^10-LHRH.TFA [Compound 3366] | 6/8@5 μg |
| Ac-D-Nal^1, 4-Cl-D-Phe^2, D-Pal^3, His^5, D-Arg^6, Trp^7, Orn^8, D-Ala^10-LHRH.TFA [Compound 3853] | 0/8@5.0 |
| Ac-D-Nal^1, 4-Cl-D-Phe^2, D-Pal^3, Arg^5, D-His^6, Trp^7, Orn^8, D-Ala^10-LHRH.TFA [Compound 3854] | 6/8@5.0 |
| Ac-D-Nal-4-Cl-D-Phe^2, D-Pal^3, D-Lys(Ac-D-Nal^1 , 4-Cl-D-Phe^2, D-Pal^3, Ser)^6, Lys(iPr)^8, D-Ala^10-LHRH.TFA [Compound 3722] | 8/8@5.0 |
